Assay results published in US8658661B2, “Oxadiazole inhibitors of leukotriene production” (Boehringer Ingelheim International GmbH, priority 2010, dated 2014).

Legend:
[1] = target: T1, recombinant human FLAP protein (Homo sapiens, UniProt P20292); experiment: FLAP binding assay (SPA, displacement of [125I]L-691,831); conditions: membranes of sf9 cells expressing recombinant human FLAP; [125I]L-691,831 probe; read-out: FLAP binding IC50
T1 construct: made in house; host or cells: Sf9 insect cells (100,000×g membrane pellet used)
T1 sequence (P20292 1-161): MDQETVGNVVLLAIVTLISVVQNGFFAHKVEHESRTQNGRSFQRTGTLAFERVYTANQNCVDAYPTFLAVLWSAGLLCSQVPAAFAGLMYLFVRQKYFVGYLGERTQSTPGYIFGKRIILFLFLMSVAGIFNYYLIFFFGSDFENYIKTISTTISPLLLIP
Procedure, shortened: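 Membranes from sf9 cells expressing human FLAP in pH 7.5 Tris buffer (MgCl2, EDTA, PMSF). Non-specific binding defined with 10 μM cold L-691,831.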

[2] = tested on: synthesis of LTB4 in human whole blood; experiment: Human whole blood assay (inhibition of LTB4 synthesis, calcimycin stimulated); type: cell-based; conditions: heparinized human whole blood, calcimycin 20 μM, plasma LTB4
Procedure, shortened: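 Readout: plasma LTB4 by antibody-based HTRF. Compound added to heparinized human whole blood, 15 min 37° C; calcimycin 20 μM final (PBS pH 7.4), 30 min 37° C; spun 1500×g 5 min, plasma taken.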

**Q.** Which results are given for `CC(C)C(C)(c1ccc(-c2cnc(N)nc2)cc1)c1noc(-c2cnn(CC(C)(C)C(=O)O)c2)n1` (stereo not drawn) [Example 164, 3-[4-(3-{2-[4-(2-aminopyrimidin-5-yl)phenyl]-3-methylbutan-2-yl}-1,2,4-oxadiazol-5-yl)-1H-pyrazol-1-yl]-2,2-dimethylpropanoic acid]?
**A.** IC50 [1]: 0.0014 µM; IC50 [2]: 2.7 µM

**Q.** For `CN(C)C(=O)Cn1cc(-c2nc([C@@](C)(c3ccc(-c4cnc(N)nc4F)cc3)C3CC3)no2)cn1` [Example 293, 2-[4-(3-{(R)-1-[4-(2-Amino-4-fluoro-pyrimidin-5-yl)-phenyl]-1-cyclopropyl-ethyl}-[1,2,4]oxadiazol-5-yl)-pyrazol-1-yl]-N,N-dimethyl-acetamide], which IC50 [1] is on record?
**A.** 0.0035 µM

**Q.** And the IC50 [2]?
**A.** 0.11 µM

**Q.** `CC(c1ccc(-c2cnc(N)nc2)cc1)(c1noc(N2CCCC2)n1)C1CC1` (stereo not drawn) [Example 204, 5-{4-[1-Cyclopropyl-1-(5-pyrrolidin-1-yl-[1,2,4]oxadiazol-3-yl)-ethyl]-phenyl}-pyrimidin-2-ylamine] was tested. Which IC50 [1] did it give?
**A.** 0.013 µM

**Q.** And the IC50 [2]?
**A.** 0.15 µM

**Q.** What does the source list for `CC(C)C(C)(c1ccc(-c2cnc(N)nc2)cc1)c1noc(-c2cncs2)n1` (stereo not drawn) [Example 130, 5-(4-{3-methyl-2-[5-(1,3-thiazol-5-yl)-1,2,4-oxadiazol-3-yl]butan-2-yl}phenyl)pyrimidin-2-amine]?
**A.** IC50 [1]: 0.0014 µM; IC50 [2]: 0.18 µM

**Q.** For `CC(=O)N1CCC(NC(=O)c2nc(C(C)(c3ccc(-c4cnc(N)nc4)cc3)C(C)C)no2)CC1` (stereo not drawn) [Example 86, N-(1-acetylpiperidin-4-yl)-3-{2-[4-(2-aminopyrimidin-5-yl)phenyl]-3-methylbutan-2-yl}-1,2,4-oxadiazole-5-carboxamide], which IC50 [1] is on record?
**A.** 0.19 µM

**Q.** And the IC50 [2]?
**A.** > 5 µM

**Q.** Which IC50 [1] does the source give for `CC(C)C(C)(c1ccc(-c2cnc(N)nc2)cc1)c1noc(NC2CCN(C)CC2)n1` (stereo not drawn) [Example 236, 5-(4-{1,2-Dimethyl-1-[5-(1-methyl-piperidin-4-ylamino)-[1,2,4]oxadiazol-3-yl]-propyl}-phenyl)-pyrimidin-2-ylamine] here?
**A.** 0.089 µM

**Q.** What about the IC50 [2] of the same compound?
**A.** 1.3 µM

**Q.** `CC(C)C(C)(c1ccc(-c2cnc(N)nc2)cc1)c1noc(N2CCC(N)CC2)n1` (stereo not drawn) [Example 222, 5-(4-{1-[5-(4-Amino-piperidin-1-yl)-[1,2,4]oxadiazol-3-yl]-1,2-dimethyl-propyl}-phenyl)-pyrimidin-2-ylamine] was tested. Which IC50 [1] did it give?
**A.** 0.13 µM

**Q.** What about the IC50 [2] of the same compound?
**A.** 1.7 µM

**Q.** `Cc1ccc(-c2nc(C(C)(c3ccc(-c4cnc(N)nc4)cc3)C(C)C)no2)cn1` (stereo not drawn) [Example 4, 5-(4-{3-methyl-2-[5-(6-methylpyridin-3-yl)-1,2,4-oxadiazol-3-yl]butan-2-yl}phenyl)pyrimidin-2-amine] was tested. Which IC50 [1] did it give?
**A.** 0.0016 µM

**Q.** And the IC50 [2]?
**A.** 0.31 µM

**Q.** `CC(c1ccc(-c2cnc(N)nc2)cc1)(c1noc(N2CCC(S(C)(=O)=O)CC2)n1)C1CC1` (stereo not drawn) [Example 259, 5-(4-{1-Cyclopropyl-1-[5-(4-methanesulfonyl-piperidin-1-yl)-[1,2,4]oxadiazol-3-yl]-ethyl}-phenyl)-pyrimidin-2-ylamine] was tested. Which IC50 [1] did it give?
**A.** 0.016 µM

**Q.** What about the IC50 [2] of the same compound?
**A.** 0.27 µM

**Q.** Which results are given for `CC(C)C(C)(c1ccc(-c2cnc(N)nc2)cc1)c1noc(-c2cnn(C(C)(C)C(=O)O)c2)n1` (stereo not drawn) [Example 160, 2-[4-(3-{2-[4-(2-aminopyrimidin-5-yl)phenyl]-3-methylbutan-2-yl}-1,2,4-oxadiazol-5-yl)-1H-pyrazol-1-yl]-2-methylpropanoic acid]?
**A.** IC50 [1]: 0.009 µM; IC50 [2]: > 5 µM

**Q.** Which IC50 [1] does the source give for `C[C@@](c1ccc(-c2cnc(N)nc2)cc1)(c1noc(-c2cnn(C3CC3)c2)n1)C1CC1` [Example 271, 5-(4-{(R)-1-Cyclopropyl-1-[5-(1-cyclopropyl-1H-pyrazol-4-yl)-[1,2,4]oxadiazol-3-yl]-ethyl}-phenyl)-pyrimidin-2-ylamine] here?
**A.** 0.0049 µM

**Q.** What about the IC50 [2] of the same compound?
**A.** 0.051 µM

**Q.** Which results are given for `CNC(=O)Cn1cc(-c2nc(C(C)(C)c3ccc(-c4cnc(N)nc4)cc3)no2)cn1` [Example 79, 2-[4-(3-{2-[4-(2-aminopyrimidin-5-yl)phenyl]propan-2-yl}-1,2,4-oxadiazol-5-yl)-1H-pyrazol-1-yl]-N-methylacetamide]?
**A.** IC50 [1]: 0.15 µM; IC50 [2]: 2.2 µM
